Reference: PubChem BioAssay (NCI)
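GI50 is the concentration that inhibits growth by half. TGI: concentration producing complete growth inhibition.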

How the values were obtained:
Assay in all cases: NCI-60 cell line screen, 384-well format
[1] = tested on: OVCAR-5 ovarian
[2] = tested on: ACHN renal
[3] = tested on: SK-MEL-2 melanoma
[4] = tested on: M14 melanoma
[5] = tested on: SR leukemia
[6] = tested on: A498 renal
[7] = tested on: LOX IMVI melanoma
[8] = tested on: SF-268 CNS
[9] = tested on: UACC-257 melanoma
[10] = tested on: MDA-MB-231 breast
[11] = tested on: KM12 colon
[12] = tested on: A549 NSCLC
[13] = tested on: UO-31 renal
[14] = tested on: NCI-H23 lung
[15] = tested on: COLO 205 colon
[16] = tested on: CCRF-CEM leukemia
[17] = tested on: HCT-15 colon
[18] = tested on: MDA-MB-468 breast
[19] = tested on: OVCAR-8 ovarian
[20] = tested on: SN12C renal
[21] = tested on: DU-145 prostate
[22] = tested on: TK-10 renal
[23] = tested on: SK-MEL-28 melanoma
[24] = tested on: NCI-H460 NSCLC
[25] = tested on: K-562 leukemia
[26] = tested on: T-47D breast
[27] = tested on: HCT-116 colon
[28] = tested on: HT29 colon
[29] = tested on: HS 578T breast
[30] = tested on: NCI-H226 lung
[31] = tested on: SK-OV-3 ovarian
[32] = tested on: CAKI-1 renal
[33] = tested on: MDA-MB-435 melanoma
[34] = tested on: SW-620 colon
[35] = tested on: OVCAR-3 ovarian
[36] = tested on: MALME-3M melanoma
[37] = tested on: BT-549 breast
[38] = tested on: HL-60(TB) leukemia
[39] = tested on: MOLT-4 leukemia
[40] = tested on: HOP-62 NSCLC
[41] = tested on: RXF 393 renal
[42] = tested on: SF-295 CNS
[43] = tested on: IGROV1 ovarian
[44] = tested on: MCF7 breast
[45] = tested on: NCI-H522 lung
[46] = tested on: SF-539 CNS
[47] = tested on: 786-0 renal
[48] = tested on: NCI-H322M lung
[49] = tested on: EKVX NSCLC
[50] = tested on: RPMI-8226 leukemia
[51] = tested on: SNB-75 CNS
[52] = tested on: SK-MEL-5 melanoma
[53] = tested on: UACC-62 melanoma
[54] = tested on: HCC-2998 colon
[55] = tested on: PC-3 prostate
[56] = tested on: U251 glioblastoma
[57] = tested on: HOP-92 NSCLC
[58] = tested on: OVCAR-4 ovarian
[59] = tested on: SNB-19 CNS
[60] = tested on: NCI/ADR-RES ovarian

Cn1ncc2cc(-c3cnc(N)c(Cl)c3N3CCC4(CCNC4=O)CC3)ccc21
GI50 [1]: 51 µM | TGI [1]: > 100 µM | GI50 [2]: 14.1 µM | TGI [2]: > 100 µM | GI50 [3]: 17.6 µM | TGI [3]: 47.1 µM | GI50 [4]: > 78.2 µM | TGI [4]: > 100 µM | GI50 [5]: 8.79 µM | TGI [5]: 21.7 µM | GI50 [6]: 10.2 µM | TGI [6]: > 100 µM | GI50 [7]: 39.5 µM | TGI [7]: > 100 µM | GI50 [8]: 41.9 µM | TGI [8]: > 100 µM | GI50 [9]: 15.4 µM | TGI [9]: 31.8 µM | GI50 [10]: 32.8 µM | TGI [10]: > 100 µM | GI50 [11]: 32.4 µM | TGI [11]: > 100 µM | GI50 [12]: 47.6 µM | TGI [12]: > 100 µM | GI50 [13]: 32.3 µM | TGI [13]: > 100 µM | GI50 [14]: 34.2 µM | TGI [14]: > 80.3 µM | GI50 [15]: 48.3 µM | TGI [15]: > 100 µM | GI50 [16]: 14.3 µM | TGI [16]: 32.9 µM | GI50 [17]: 22.5 µM | TGI [17]: 83.4 µM | GI50 [18]: 9.27 µM | TGI [18]: 25.5 µM | GI50 [19]: 34.8 µM | TGI [19]: > 100 µM | GI50 [20]: 48.2 µM | TGI [20]: > 100 µM | GI50 [21]: 33.9 µM | TGI [21]: > 100 µM | GI50 [22]: 38.2 µM | TGI [22]: > 100 µM | GI50 [23]: 39.6 µM | TGI [23]: > 100 µM | GI50 [24]: 35.9 µM | TGI [24]: > 100 µM | GI50 [25]: 36.1 µM | TGI [25]: > 100 µM | GI50 [26]: 21.5 µM | TGI [26]: > 96.1 µM | GI50 [27]: 29.4 µM | TGI [27]: > 100 µM | GI50 [28]: 16.6 µM | TGI [28]: > 59.9 µM | GI50 [29]: 24.1 µM | TGI [29]: 46.9 µM | GI50 [30]: 19.6 µM | TGI [30]: 53.7 µM | GI50 [31]: 29.9 µM | TGI [31]: > 93.3 µM | GI50 [32]: 20.6 µM | TGI [32]: > 95.7 µM | GI50 [33]: > 87.5 µM | TGI [33]: > 100 µM | GI50 [34]: 3.59 µM | TGI [34]: 17.5 µM | GI50 [35]: 23.5 µM | TGI [35]: > 100 µM | GI50 [36]: 40.9 µM | TGI [36]: > 85 µM | GI50 [37]: 38.1 µM | TGI [37]: > 100 µM | GI50 [38]: 13.4 µM | TGI [38]: 26.2 µM | GI50 [39]: 10.8 µM | TGI [39]: 23.8 µM | GI50 [40]: 29.2 µM | TGI [40]: > 90.6 µM | GI50 [41]: 18.6 µM | TGI [41]: 42.9 µM | GI50 [42]: 46.1 µM | TGI [42]: > 100 µM | GI50 [43]: 19.6 µM | TGI [43]: > 87 µM | GI50 [44]: 48.1 µM | TGI [44]: > 100 µM | GI50 [45]: 20.3 µM | TGI [45]: > 100 µM | GI50 [46]: 48.6 µM | TGI [46]: > 100 µM | GI50 [47]: 10.7 µM | TGI [47]: 25.4 µM | GI50 [48]: 47.6 µM | TGI [48]: > 100 µM | GI50 [49]: 28.2 µM | TGI [49]: > 91.8 µM | GI50 [50]: 3.6 µM | TGI [50]: 27.6 µM | GI50 [51]: 58.3 µM | TGI [51]: > 100 µM | GI50 [52]: 21.2 µM | TGI [52]: 48.7 µM | GI50 [53]: 33.2 µM | TGI [53]: 97.6 µM | GI50 [54]: 43.1 µM | TGI [54]: > 100 µM | GI50 [55]: 28.3 µM | TGI [55]: > 96.5 µM | GI50 [56]: 21.3 µM | TGI [56]: > 100 µM | GI50 [57]: 41.4 µM | TGI [57]: > 87.8 µM | GI50 [58]: 97.1 µM | TGI [58]: > 100 µM | GI50 [59]: 63.1 µM | TGI [59]: > 100 µM | GI50 [60]: 31.4 µM | TGI [60]: > 83.3 µM
